We go through 16 compounds from patent US8129396B2, “2-[1H-benzimidazol-2(3H)-ylidene]-2-(pyrimidin-2-yl)acetamides and 2-[benzothiazol-2(3H)-ylidene]-2-(pyrimidin-2-yl)acetamides as kinase inhibitors” (Telik, Inc., priority 2008, dated 2012).

For one assay, the target named is T1, Aurora A kinase (Homo sapiens, UniProt O14965).
T1 construct: purchased Upstate Biotech
T1 sequence (O14965 1-403): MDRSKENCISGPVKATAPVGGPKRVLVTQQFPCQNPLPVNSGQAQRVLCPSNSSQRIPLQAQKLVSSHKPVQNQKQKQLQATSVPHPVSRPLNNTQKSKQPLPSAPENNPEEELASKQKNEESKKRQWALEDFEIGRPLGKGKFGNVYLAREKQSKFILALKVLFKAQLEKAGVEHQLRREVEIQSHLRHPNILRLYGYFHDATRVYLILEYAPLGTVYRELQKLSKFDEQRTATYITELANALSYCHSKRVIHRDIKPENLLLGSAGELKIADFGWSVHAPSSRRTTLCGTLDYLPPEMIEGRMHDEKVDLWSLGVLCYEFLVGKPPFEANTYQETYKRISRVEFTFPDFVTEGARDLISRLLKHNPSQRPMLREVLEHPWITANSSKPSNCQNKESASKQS
In words: Aurora A kinase assay (IMAP fluorescence polarization). The class given is biochemical. The note with it: 10 μM ATP; rounded to 1 significant figure; read-out: Aur-A IC50. The text has this: (§1) The cell lines HL60 (human promyelocytic leukemia) and HCT116 (human colon carcinoma) were obtained from the American Type Culture Collection, Manassas, Va., U.S.A., and HUVEC-2 (human umbilical vein endothelial cells) from BD Biosciences, Bedford, Mass., U.S.A. Aurora A kinase was obtained from Upstate Biotech, Billerica, Mass., U.S.A.; Aurora B kinase from BPS Bioscience, San Diego, Calif., U.S.A.; and VEGFR2 kinase from Cell Signaling Technology, Danvers, Mass., U.S.A. The IMAP FP Screening Express kit was obtained from Molecular Devices, Sunnyvale, Calif., U.S.A.; the CellTiter-Glo assay kit from Promega Corporation, Madison, Wis., U.S.A.; and the Cellular DNA Cytometric Analysis Reagent Kit and BrdU labeling and detection kit from Roche Diagnostics Corporation, Indianapolis, Ind., U.S.A. All products were used in accordance with manufacturer's directions. Kinase inhibition assays and the histone phosphorylation (p-H3) assay were conducted in duplicate, and the cytotoxicity and HUVEC proliferation assays were conducted in triplicate, in each case with solvent control.
Aurora A kinase assay: the test compounds were diluted in dimethylsulfoxide (DMSO, eight concentrations with serial 3-fold dilutions) and incubated (final DMSO concentration 2.5%) with Aurora A kinase at room temperature for 5 min in kinase reaction buffer with 1 mM dithiothreitol (IMAP FP Screening Express). The kinase reaction was initiated by adding 100 nM fluorescein labeled PKAtide and 10 μM adenosine triphosphate (ATP), and allowed to continue for 45 min at room temperature, after which it was stopped by adding binding reagent (1:400 dilution in binding buffer A). After 30 min of room temperature incubation with shaking, the fluorescence polarization was measured on a LJL plate reader. Aurora B kinase assay: performed as for the Aurora A kinase assay, but using Aurora B kinase instead of Aurora A kinase.
On the technique in general: Polarisation of emitted light reports the rotation of a fluorescent probe.

The target of the next assay is T2, Aurora B kinase (Homo sapiens, UniProt Q96GD4).
T2 construct: purchased BPS Bioscience
In words: Aurora B kinase assay (IMAP fluorescence polarization). The class given is biochemical. The note with it: 10 μM ATP; rounded to 1 significant figure; read-out: Aur-B IC50.
Source text: as §1
The kinase reaction was initiated by adding 100 nM fluorescein labeled PKAtide and 10 μM adenosine triphosphate (ATP), and allowed to continue for 45 min at room temperature, after which it was stopped by adding binding reagent (1:400 dilution in binding buffer A). After 30 min of room temperature incubation with shaking, the fluorescence polarization was measured on a LJL plate reader. Aurora B kinase assay: performed as for the Aurora A kinase assay, but using Aurora B kinase instead of Aurora A kinase.

The test system of assay [1] is HUVEC-2 (human umbilical vein endothelial cells). In words: HUVEC VEGF-dependent proliferation assay (BrdU). The note with it: VEGF (25 ng/mL)-dependent proliferation, read-out: HUVEC IC50. The class given is cell-based.
Source text: as §1
HUVEC-2 cells were seeded at 10^4 cells/well in a 96-well plate coated with 0.1% gelatin in complete medium. […] The compounds were serially diluted in DMSO, and added to the cells at 0.5% DMSO final concentration. After 2 hr, VEGF (25 ng/mL) was added; and after a further day, 5-bromo-2-deoxyuridine (BrdU, 10 μM) was added to label proliferating cells, and the cells incubated for another day. The plates were then processed using the Roche BrdU labeling and detection kit, and the VEGF-dependent antiproliferative activity of the compounds determined.

For assay [2], the system named is HCT116 (human colon carcinoma) cells. Kind of assay: HCT116 cytotoxicity assay (CellTiter-Glo). The note with it: HCT-116, 72 h, cytotoxicity, three days culture, read-out: HCT116 IC50. The class given is cell-based.
Source text: as §1
Log-phase cells were trypsinized, collected by centrifugation, and resuspended in a small volume of fresh medium, and the density of viable cells was determined following Trypan Blue staining. Cells were diluted in fresh media (1×10^4 cells/mL for HL60 and 4×10^4 cells/mL for HCT116 cells), the test compounds (concentrations between 0.1 μM and 200 μM, dissolved in DMSO, 50 μL) added immediately after dilution to achieve a final DMSO concentration of 0.5%, then the suspensions added at 150 μL/well to 96-well plates, and incubated overnight to allow attachment in the case of adherent cells. The cells were cultured for three days (about three doubling times). The cells were then collected by centrifugation, and 100 μL of the culture supernatant was replaced by the CellTiter-Glo reagent. After incubation for 15 minutes at room temperature, the plate was read with a luminometer.
(In general: In ATP-based viability assays light output follows the ATP content of the culture.)

Another assay relates to p-H3 in HCT116 cells. Kind of assay: Histone phosphorylation (p-H3) assay. The class given is cell-based. The note with it: Homo sapiens, HCT-116; HCT116 cells, 4 hr incubation; read-out: p-H3 IC50.
Source text: as §1
Log phase HCT116 cells were seeded at 2.5×10^4 cells/well in a 96-well plate and allowed to attach overnight. The test compounds were diluted in DMSO (8 concentrations with serial 3-fold dilutions) and added to the cells (0.5% DMSO final concentration), and the cells incubated for 4 hr. The cells were then washed three times with cold phosphate-buffered saline (PBS), and lysis buffer was added. After 30 min shaking at 4° C. and centrifugation, the supernatants were transferred to a nitrocellulose membrane by a “dot-blot” apparatus. After washing the wells, the membrane was processed for Western blot. Detection of p-H3 and β-actin was performed on the same membrane with primary rabbit anti-p-H3 and mouse anti-β-actin antibodies followed by secondary goat anti-rabbit IRDye800 and goat anti-mouse AlexaFluor 680 antibodies. The membranes were scanned on an Odyssey scanner.

The target in another assay is T3, VEGFR2 kinase (Homo sapiens, UniProt P35968).
T3 construct: purchased Cell Signaling Technology
Kind of assay: VEGFR2 kinase assay. The class given is biochemical. The following applies: 6 μM ATP, 1 mM MnCl2; rounded to 1 significant figure.
Source text: as §1
This assay was performed as for the Aurora A kinase assay, using VEGFR2 kinase, CSKtide as the substrate with 6 μM ATP and 1 mM MnCl2, a kinase reaction time of 1 hr, and dilution of the binding reagent 1:1200 in binding buffer A/binding buffer B (1:1).

T3 sequence (P35968 20-1356): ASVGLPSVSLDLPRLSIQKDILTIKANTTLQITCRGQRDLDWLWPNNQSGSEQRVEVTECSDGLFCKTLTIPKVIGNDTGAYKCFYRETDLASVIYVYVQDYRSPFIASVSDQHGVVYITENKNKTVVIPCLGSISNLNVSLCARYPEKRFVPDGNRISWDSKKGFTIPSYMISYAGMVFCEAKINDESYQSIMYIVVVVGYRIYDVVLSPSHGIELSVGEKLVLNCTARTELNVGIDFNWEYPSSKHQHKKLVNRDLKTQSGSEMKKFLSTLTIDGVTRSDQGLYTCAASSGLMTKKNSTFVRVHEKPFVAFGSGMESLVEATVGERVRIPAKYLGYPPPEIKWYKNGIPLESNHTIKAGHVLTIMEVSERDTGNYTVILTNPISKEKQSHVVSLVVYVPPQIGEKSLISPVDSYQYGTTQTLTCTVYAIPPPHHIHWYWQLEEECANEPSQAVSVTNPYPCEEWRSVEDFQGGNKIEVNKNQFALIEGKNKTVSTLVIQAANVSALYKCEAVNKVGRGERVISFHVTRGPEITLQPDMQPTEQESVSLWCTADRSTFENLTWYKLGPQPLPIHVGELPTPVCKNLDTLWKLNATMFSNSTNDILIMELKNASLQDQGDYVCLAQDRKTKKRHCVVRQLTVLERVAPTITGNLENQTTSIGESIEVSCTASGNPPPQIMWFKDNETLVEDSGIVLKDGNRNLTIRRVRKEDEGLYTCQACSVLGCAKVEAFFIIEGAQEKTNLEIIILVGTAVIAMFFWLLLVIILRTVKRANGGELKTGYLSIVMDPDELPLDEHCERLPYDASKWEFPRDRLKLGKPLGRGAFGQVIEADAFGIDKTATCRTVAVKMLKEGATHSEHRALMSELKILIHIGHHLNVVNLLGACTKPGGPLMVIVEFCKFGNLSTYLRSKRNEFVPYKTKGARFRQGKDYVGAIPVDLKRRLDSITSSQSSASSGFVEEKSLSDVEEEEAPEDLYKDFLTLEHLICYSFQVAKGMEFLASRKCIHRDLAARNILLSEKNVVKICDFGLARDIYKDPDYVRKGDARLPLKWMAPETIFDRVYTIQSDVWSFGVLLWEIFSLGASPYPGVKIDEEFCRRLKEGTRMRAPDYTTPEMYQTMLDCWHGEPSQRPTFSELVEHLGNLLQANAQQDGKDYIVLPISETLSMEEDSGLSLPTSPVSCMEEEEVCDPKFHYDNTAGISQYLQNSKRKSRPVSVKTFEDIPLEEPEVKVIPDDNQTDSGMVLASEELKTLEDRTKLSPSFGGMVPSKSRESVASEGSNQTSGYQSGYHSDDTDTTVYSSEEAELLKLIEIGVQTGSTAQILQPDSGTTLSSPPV
T2 sequence (Q96GD4 whole entry): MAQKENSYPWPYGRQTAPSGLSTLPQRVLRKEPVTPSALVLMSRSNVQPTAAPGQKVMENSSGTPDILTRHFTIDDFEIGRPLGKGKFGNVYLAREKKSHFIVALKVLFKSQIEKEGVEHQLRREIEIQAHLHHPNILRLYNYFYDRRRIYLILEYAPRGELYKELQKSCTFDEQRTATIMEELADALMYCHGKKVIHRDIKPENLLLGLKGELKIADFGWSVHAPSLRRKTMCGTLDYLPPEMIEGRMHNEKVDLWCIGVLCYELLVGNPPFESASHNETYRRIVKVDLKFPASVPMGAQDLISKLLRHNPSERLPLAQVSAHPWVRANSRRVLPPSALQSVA

Consider `NC(=O)/C(=C1\Nc2ccc(C(=O)N3CCC(N)CC3)cc2S1)c1nccc(C(F)(F)F)n1` [Compound 67A], for which the IC50 turned out to be 10 nM at Aurora A kinase; 40 nM at Aurora B kinase; 20 nM in assay [1]; 200 nM in assay [2]; 40 nM in the assay on p-H3 in HCT116 cells; 4 nM against VEGFR2 kinase.

Consider `NC(=O)/C(=C1\Nc2ccc(CN3CCOCC3)cc2S1)c1nccc(C(F)(F)F)n1` [Compound 91A], for which the IC50 on Aurora A kinase stood at 2 nM; on Aurora B kinase, 20 nM; in assay [1], 40 nM; in assay [2] it was 300 nM; in the assay with p-H3 in HCT116 cells, 100 nM; on VEGFR2 kinase it was 10 nM.

As for `NC(=O)/C(=C1\Nc2cc(OCCN3CCOCC3)ccc2S1)c1nccc(C(F)(F)F)n1` [Compound 112A], the concentration for half-maximal inhibition (IC50) at Aurora A kinase was 20 nM; on Aurora B kinase, 20 nM; in assay [1] it was 200 nM; in assay [2] it was 2000 nM; in the assay on p-H3 in HCT116 cells, 900 nM; at VEGFR2 kinase, 200 nM.

Consider `NC(=O)/C(=C1\Nc2ccc(C(=O)Nc3ccc(CN4CCOCC4)cc3)cc2N1)c1nccc(C(F)(F)F)n1` [Compound 72A], for which the IC50 at Aurora A kinase was determined as 20 nM; at Aurora B kinase it was 20 nM; in assay [1] it was 80 nM; in assay [2] it was 200 nM; with p-H3 in HCT116 cells, 300 nM; against VEGFR2 kinase, 20 nM.

On to `CN1CCN(c2ccc3c(c2)N/C(=C(/C(N)=O)c2nccc(C(F)(F)F)n2)N3)CC1` [Compound 119A], for which the half-maximal inhibitory concentration (IC50) is 9 nM on Aurora A kinase; 6 nM at Aurora B kinase; 200 nM in assay [1]; 1000 nM in assay [2]; 200 nM with p-H3 in HCT116 cells; 6 nM at VEGFR2 kinase.

In the case of `CN1CCN(CCNC(=O)c2ccc3c(c2)S/C(=C(/C(N)=O)c2nccc(C(F)(F)F)n2)N3)CC1` [Compound 57A], the 50% inhibitory concentration (IC50) on Aurora A kinase stood at 20 nM; at Aurora B kinase, 20 nM; in assay [1] it was 20 nM; in assay [2] it was 100 nM; with p-H3 in HCT116 cells, 100 nM; at VEGFR2 kinase it was 10 nM.

In the case of `COc1ccnc(/C(C(N)=O)=C2/Nc3ccccc3S2)n1` [Compound 16A], the IC50 is 100 nM at Aurora A kinase; 20 nM at Aurora B kinase; 2000 nM in assay [1]; 2000 nM in assay [2]; 2000 nM with p-H3 in HCT116 cells; 300 nM at VEGFR2 kinase.

`CN1CCN(C(=O)c2ccc3c(c2)S/C(=C(/C(N)=O)c2nccc(C(F)(F)F)n2)N3)CC1` [Compound 59A]: the IC50 on Aurora A kinase was determined as 8 nM; on Aurora B kinase, 20 nM; in assay [1], 50 nM; in assay [2] it was 400 nM; in the assay on p-H3 in HCT116 cells it was 90 nM; against VEGFR2 kinase, 6 nM.

With `CN1CCN(CCCOc2ccc3c(c2)S/C(=C(/C(N)=O)c2nccc(C(F)(F)F)n2)N3)CC1` [Compound 115A], the IC50 was found to be 40 nM on Aurora A kinase; 30 nM on Aurora B kinase; 100 nM in assay [1]; 100 nM in assay [2]; 200 nM with p-H3 in HCT116 cells; 20 nM at VEGFR2 kinase.

`NC(=O)/C(=C1\Nc2cc(F)c(C(=O)NCCCN3CCOCC3)cc2S1)c1nccc(C(F)(F)F)n1` [Compound 50A]: the IC50 turned out to be 20 nM at Aurora A kinase; 10 nM at Aurora B kinase; 90 nM in assay [1]; 300 nM in assay [2]; 400 nM with p-H3 in HCT116 cells; 20 nM on VEGFR2 kinase.

As for `NC(=O)C(=C1Nc2ccccc2N1)c1ncc(C(=O)NCCCN2CCOCC2)c(C(F)(F)F)n1` [Compound 132A], the IC50 was 60 nM at Aurora A kinase; 20 nM on Aurora B kinase; 600 nM in assay [1]; 1000 nM in assay [2]; 2000 nM with p-H3 in HCT116 cells; 100 nM against VEGFR2 kinase.

In the case of `CCN1CCN(CCCNC(=O)c2ccc3c(c2)S/C(=C(/C(N)=O)c2nccc(C(F)(F)F)n2)N3)CC1` [Compound 56A], the IC50 at Aurora A kinase amounted to 20 nM; on Aurora B kinase it was 20 nM; in assay [1], 40 nM; in assay [2], 40 nM; in the assay with p-H3 in HCT116 cells it was 700 nM; against VEGFR2 kinase it was 20 nM.

On to `CCN1CCN(CCCNC(=O)c2ccc3c(c2)N/C(=C(/C(N)=O)c2nccc(C(F)(F)F)n2)N3)CC1` [Compound 55A], for which the IC50 at Aurora A kinase was 20 nM; at Aurora B kinase it was 20 nM; in assay [1], 50 nM; in assay [2], 300 nM; with p-H3 in HCT116 cells, 700 nM; at VEGFR2 kinase, 20 nM.

`NC(=O)/C(=C1\Nc2ccc(C(=O)N3CC[C@@H](N)C3)cc2S1)c1nccc(C(F)(F)F)n1` [Compound 69A]: the IC50 on Aurora A kinase amounted to 20 nM; on Aurora B kinase it was 30 nM; in assay [1] it was 20 nM; in assay [2], 90 nM; in the assay with p-H3 in HCT116 cells, 100 nM; against VEGFR2 kinase, 2 nM.

Turning to `NC(=O)/C(=C1\Nc2ccc(OCCCN3CCOCC3)cc2S1)c1nccc(C(F)(F)F)n1` [Compound 113A], the concentration for half-maximal inhibition (IC50) amounted to 30 nM on Aurora A kinase; 20 nM on Aurora B kinase; 200 nM in assay [1]; 600 nM in assay [2]; 400 nM in the assay with p-H3 in HCT116 cells; 40 nM at VEGFR2 kinase.

Consider `CN1CCN(c2ccc3c(c2)S/C(=C(/C(N)=O)c2nccc(C(F)(F)F)n2)N3)CC1` [Compound 120A], for which the IC50 at Aurora A kinase was 30 nM; on Aurora B kinase, 9 nM; in assay [1] it was 2000 nM; in assay [2] it was 2000 nM; with p-H3 in HCT116 cells, 500 nM; against VEGFR2 kinase, 2 nM.

Usually IC50 stands for the concentration at which inhibition is half-maximal.
